From patent US6638974B1, “Ascorbyl esters for the treatment of cancer” (University of South Florida, priority 1999, dated 2003)

Experiments:
[1] = system: rat astrocyte cells; assay: Apoptosis by in situ TUNEL assay, rat astrocytes in primary culture; assay type: cell-based; conditions: 100 μM, 24 hours, vs untreated astrocytes
Method: Apoptosis by in situ TUNNEL assay: This experiment was designed to test the hypothesis that down regulation of IGF1-R facilitates apoptosis in T98G cells. […] In addition, to test whether Asc-S treatment induces apoptosis in normal cells, rat astrocyte cells in primary culture were treated with 100 μM Asc-S for 24 hours. […] The increased apoptosis in the Asc-S treated T98G cells is due to down regulation of IGF1-R.
In FIG. 10, apoptosis was evaluated by in situ immunohistochemical detection and quantification at a single cell level.

[2] = system: IGF1-R; assay: IGF1-R expression by Western immunoblotting, T98G; assay type: cell-based, human; conditions: 100 μM, 24 hours, MEM+10% FBS
Method: (§1) The T98G and U-373 cells were cultured for 24 hours in MEM+10% FBS and when confluent were treated with 100 μM and 75 μM, Asc-S for 24 hours, respectively. […] In addition, it was also observed that the inhibition of IGF1-R expression was dose and time dependent. The T98G cells culture in MEM+10% FBS and treated with different concentrations of Asc-S, e.g. 50, 75, 100, 125, 150 and 175 μM for 24 hours, inhibited IGF1-R in a dose dependent fashion (FIG. 8C). The T98G cells treated with 100 μM Asc-S for different time points, e.g. 1, 3, 6, 12 and 24 hours inhibited IGF1-R in a time dependent manner (FIG. 8D). IGF1-R expression was evaluated by Western immunoblotting technique with rabbit-antihuman IGF1-R antibodies (Upstate Biotechnology, Lake Placid, N.Y.) with HRP conjugated anti-rabbit secondary antibody.
(§2) The inhibition of IGF1-R expression was also dose and time dependent. […] The following are depicted in FIG. 8B: Lane 1: P6 positive control for IGF1-R […]; Lane 2: untreated T98G cells; Lane 3: Asc-S (125 μM) treated T98G cells. […]

[3] = system: IGF1-R; assay: IGF1-R expression by Western immunoblotting, U-373; assay type: cell-based, human; conditions: 75 μM, 24 hours, MEM+10% FBS
Method: as §1, §2

[4] = system: PANC-1 cells; assay: Soft agar colony growth, PANC-1; assay type: cell-based, human; conditions: PANC-1, 150 μM Asc-S
Method: Soft agar experiments: To test the hypothesis that treatment of PANC-1 cells in culture with Asc-S reverses their transformed phenotype, the growth of PANC-1 was assessed in soft agar. PANC-1 cells were seeded at a density of 3×10^3/35 mm plate in 10% serum on a top layer of 0.3% agar and a bottom layer of 1% agar with and without the addition of 150 μM of Asc-S for 24 hours. The Asc-S was added to the top layer every day. Colonies greater than 125 microns in diameter (or ten cells) were counted at weekly intervals for 14-21 days. The clonogenicity was determined in three independent experiments comprising six replicates.

[5] = system: PDGF-R; assay: PDGF-R expression by Western blot, PANC-1; assay type: cell-based, human; conditions: 150 μM, 24 hours
[6] = system: T98G cells; assay: Cell multiplication cycle, T98G; assay type: cell-based, human; conditions: 50-175 μM Asc-S
From the text: Human glioma cell proliferation and tumorigrenicity are under autocrine control of the insulin like growth factor 1 (IGF-1) and its receptor (IGF-1R). Although it has been known for quite some time that ascorbic acid and its derivatives have anti-proliferative effects on various tumor cells, the precise mechanism of action is unknown. This study presents data on Ascorbyl Stearate (Asc-S) […] glioma (T98G) cell proliferation and transformation. Asc-S inhibited 10% fetal bovine serum (FBS) and human recombinant IGR-1 ([…]) dependent T98G cell proliferation in a dose dependent manner. […] The inhibition of IGF-1 Rs was also time and dose dependent.

[7] = system: PANC-1 cells; assay: Apoptosis by in situ TUNEL assay, PANC-1; assay type: cell-based, human; conditions: 150 μM, 24 hours
Method: Detection of Apoptosis By In Situ Hybridization Using TUNEL Reaction: Apoptosis was determined by TdT-mediated dUTP nick end labeling (TUNEL) using an in situ cell death detection kit (Boehringer Mannheim, Indianapolis, Ind.). Asc-S treated and untreated PANC-1 cells were trypsinized and cytospin preparations were obtained. Cells were fixed with paraformaldehyde (4% in PBS, pH 7.4). After a rinse in PBS, the slides were incubated in permeabilization solution. Slides were cross-reacted with TUNEL reaction mixture for 60 minutes at 37° C. in a humidified chamber. Slides were thoroughly rinsed and reacted with alkaline phosphatase substrate solution for five to ten minutes (Vector Laboratories, Burlington, Mass.). The slides were analyzed under light microscope. These experiments were performed in duplicate.

[8] = system: IGF1-R; assay: IGF1-R expression by Western blotting, PC-1; assay type: cell-based, hamster; conditions: 150 μM, 24 hours, vs untreated control
Method: This inhibition was dose and time dependent. In fact the exposure of PANC-1 cells to different concentrations of Asc-S (e.g. 50, 75, 100, 125, 150, and 200 μM) for 24 hours in the same conditions, inhibited IGF1-R expression in a dose dependent fashion (FIG. 2A).
The effect of Asc-S on the proliferation of PC-1 and PANC-1 pancreatic tumor cells was studied using MTT assay. The expression of IGF1-R was analyzed by Western blot analysis, using polyclonal IGF1-R antibody (Upstate Biotech). Apoptosis was assessed by in situ hybridization using TUNEL reaction. […] This was associated with significant decrease in IGF1-R expression and increased apoptotic rate as compared to the control. Statistical analysis on the MTT assay was done using Student's T-test.

CCCCCCCCCCCCCCCCCC(=O)OC[C@H](O)[C@H]1OC(=O)C(O)=C1O [Asc-S, Ascorbyl stearate]
apoptotic rate (in situ TUNEL), rat astrocytes [1]: did not increase the apoptotic rate | IGF1-R expression, T98G cells [2]: significantly down regulated | IGF1-R expression, U-373 cells [3]: significantly down regulated | soft agar colonies, 1st week ([4]; 1st week): 0 colonies | soft agar colonies, 2nd week ([4]; 2nd week): 15 colonies | soft agar colonies, 3rd week ([4]; third week): 50 colonies | PDGF-R expression, PANC-1 [5]: did not affect | cell multiplication cycle, T98G [6]: arrest of cell multiplication cycle in G1/Go phase | apoptosis (in situ TUNEL), PANC-1 [7]: significant increase in apoptosis | IGF1-R expression, PC-1 cells (Western blotting) [8]: significantly lower number of receptors
